Experimental data published in US9914739B2, “6H-furo[2,3-E]indole compounds for the treatment of hepatitis C” (BRISTOL-MYERS SQUIBB COMPANY, priority 2014, dated 2018).

Experiments:
[1] = system: HCV; conditions: cited from earlier work
[2] = system: genotype 1b (Con-1) HCV replicon; assay: HCV replicon luciferase assay, genotype 1b; type: cell-based; conditions: Hepatitis C virus, Huh-7, 72 h, Huh-7 cells with genotype 1b HCV replicon, Renilla luciferase, 3 days incubation
Description: The cell lines used to evaluate compounds consist of a human hepatocyte derived cell line (Huh-7) that constitutively expresses a genotype 1b (Con-1) HCV replicon or a genotype 1b (Con-1) HCV replicon with an asparagine replacing the cysteine at amino acid 316, or a genotype 2a (JFH-1) replicon, containing a Renilla luciferase reporter gene. These cells were maintained in Dulbecco's modified Eagle medium (DMEM) containing 10% FBS, 100 U/mL penicillin/streptomycin and 1.0 mg/mL G418.
To evaluate compound efficacy, titrated compounds were transferred to sterile 384-well tissue culture treated plates, and the plates were seeded with HCV replicon cells (50 μL at a density of 2.4×10^3 cells/well) in DMEM containing 4% FBS (final DMSO concentration at 0.5%). After 3 days incubation at 37° C., cells were analyzed for Renilla Luciferase activity using the EnduRen substrate (Promega cat #E6485) according to the manufacturer's directions. Briefly, the EnduRen substrate was diluted in DMEM and then added to the plates to a final concentration of 7.5 μM. The plates were incubated for at least 1 h at 37° C. then read on a Viewlux Imager (PerkinElmer) using a luminescence program. The 50% effective concentration (EC50) was calculated using the four-parameter logistic formula noted above.

For pegylated alpha-interferon, the “efficacy as monotherapy compared with unmodified alpha-interferon” value ([1]; recent clinical results, monotherapy) is given as “superior to unmodified alpha-interferon”.
In the case of alpha-interferon and ribavirin, the sustained efficacy ([1]; patients, combination therapy) is listed as 40 % of patients.
For `CNC(=O)c1c(-c2ccc(F)cc2)oc2cc(N(CCO)S(C)(=O)=O)c(C3CC3)cc12` [HCV-796], the hepatic toxicity ([1]; extended dosing of the combination regimens) is given as “hepatic toxicity observed”.
For `CNC(=O)c1c(-c2ccc(F)cc2)oc2c1cc(-c1cccc(C(=O)NCC(C)(C)C)c1)c1[nH]ccc12` [Compound 4001, 2-(4-fluorophenyl)-N-methyl-5-(3-(neopentylcarbamoyl)phenyl)-6H-furo[2,3-e]indole-3-carboxamide], the EC50 ([2]; class symbol) was < 0.1 µM and the EC50 ([2]; numeric value) was 0.083 µM.
In the case of `CNC(=O)c1c(-c2ccc(F)cc2)oc2c1cc(-c1cccc(C(=O)NC(C)(C)C(=O)OC)c1)c1[nH]ccc12` [Compound 4004], the EC50 ([2]; class symbol) is reported as < 0.1 µM.
`CNC(=O)c1c(-c2ccc(F)cc2)oc2c1cc(-c1cccc(C(=O)NCC3(CO)CCC3)c1)c1[nH]ccc12` [Compound 4011] gave an EC50 ([2]; class symbol) of 0.1 to 1 µM.
